In the NIST ThermoML archive (doi:10.1021/je4005323):

Settings: Liquid; for speed of sound: Pulse-echo method; for mass density: Vibrating tube method

CCCCC/C=C\C/C=C\CCCCCCCC(=O)OC [methyl (Z,Z)-9,12-octadecadienate]
Settings	mass density [kg/m3]	speed of sound [m/s]
283.15 K, 101.3 kPa	–	1455
283.15 K, 10000 kPa	–	1498.2
283.15 K, 20000 kPa	–	1539
283.15 K, 30000 kPa	–	1577.6
283.15 K, 40000 kPa	–	1614.3
283.15 K, 50000 kPa	–	1649.2
283.15 K, 60000 kPa	–	1682.6
283.15 K, 70000 kPa	–	1714
283.15 K, 80000 kPa	–	1745.2
283.15 K, 90000 kPa	–	1774.4
283.15 K, 100000 kPa	–	1803.2
283.15 K, 110000 kPa	–	1830.9
283.15 K, 120000 kPa	–	1857.8
283.15 K, 130000 kPa	–	1884.6
283.15 K, 140000 kPa	–	1909.9
283.15 K, 150000 kPa	–	1934.7
293.15 K, 101.3 kPa	885.2	–
293.15 K, 10000 kPa	891.2	–
293.15 K, 20000 kPa	896.6	–
293.15 K, 30000 kPa	901.8	–
293.15 K, 40000 kPa	906.8	–
293.15 K, 50000 kPa	911.4	–
293.15 K, 60000 kPa	915.9	–
293.15 K, 70000 kPa	920.2	–
293.15 K, 80000 kPa	924	–
293.15 K, 90000 kPa	928.2	–
293.15 K, 100000 kPa	931.3	–
303.15 K, 101.3 kPa	877.7	1382.9
303.15 K, 10000 kPa	884	1428.9
303.15 K, 20000 kPa	889.6	1472.2
303.15 K, 30000 kPa	895	1513.6
303.15 K, 40000 kPa	900.1	1552
303.15 K, 50000 kPa	905	1588.6
303.15 K, 60000 kPa	909.5	1623.5
303.15 K, 70000 kPa	914	1656.3
303.15 K, 80000 kPa	918.1	1688.3
303.15 K, 90000 kPa	922.2	1719.1
303.15 K, 100000 kPa	926.2	1748.7
303.15 K, 110000 kPa	–	1776.9
303.15 K, 120000 kPa	–	1804.4
303.15 K, 130000 kPa	–	1831.3
303.15 K, 140000 kPa	–	1857
303.15 K, 150000 kPa	–	1883.6
303.15 K, 170000 kPa	–	1932.3
303.15 K, 190000 kPa	–	1979.7
303.15 K, 210000 kPa	–	2023.6
313.15 K, 101.3 kPa	870.9	–
313.15 K, 10000 kPa	877.1	–
313.15 K, 20000 kPa	882.9	–
313.15 K, 30000 kPa	888.5	–
313.15 K, 40000 kPa	893.7	–
313.15 K, 50000 kPa	898.8	–
313.15 K, 60000 kPa	903.3	–
313.15 K, 70000 kPa	908	–
313.15 K, 80000 kPa	912.2	–
313.15 K, 90000 kPa	916.6	–
313.15 K, 100000 kPa	920.6	–
323.15 K, 101.3 kPa	863.7	1312.6
323.15 K, 10000 kPa	870.1	1361.4
323.15 K, 20000 kPa	876.3	1407.2
323.15 K, 30000 kPa	882	1450.8
323.15 K, 40000 kPa	887.3	1491.3
323.15 K, 50000 kPa	892.4	1530.3
323.15 K, 60000 kPa	897.4	1567.2
323.15 K, 70000 kPa	902.1	1601.4
323.15 K, 80000 kPa	906.7	1634.3
323.15 K, 90000 kPa	910.9	1666.2
323.15 K, 100000 kPa	915.1	1697.2
323.15 K, 110000 kPa	–	1726.4
323.15 K, 120000 kPa	–	1754.6
323.15 K, 130000 kPa	–	1782.4
323.15 K, 140000 kPa	–	1808.7
323.15 K, 150000 kPa	–	1834.7
323.15 K, 170000 kPa	–	1884.5
323.15 K, 190000 kPa	–	1931.7
323.15 K, 210000 kPa	–	1977.6
333.15 K, 101.3 kPa	856.3	–
333.15 K, 10000 kPa	863	–
333.15 K, 20000 kPa	869.5	–
333.15 K, 30000 kPa	875.4	–
333.15 K, 40000 kPa	881.3	–
333.15 K, 50000 kPa	886.5	–
333.15 K, 60000 kPa	891.5	–
333.15 K, 70000 kPa	896.4	–
333.15 K, 80000 kPa	900.9	–
333.15 K, 90000 kPa	905.4	–
333.15 K, 100000 kPa	910	–
343.15 K, 101.3 kPa	849.1	1245.1
343.15 K, 10000 kPa	856.2	1297.9
343.15 K, 20000 kPa	863	1346.9
343.15 K, 30000 kPa	869.3	1392.6
343.15 K, 40000 kPa	875.1	1435.4
343.15 K, 50000 kPa	880.8	1475.1
343.15 K, 60000 kPa	885.9	1513.2
343.15 K, 70000 kPa	890.9	1549.4
343.15 K, 80000 kPa	895.7	1583.9
343.15 K, 90000 kPa	900.3	1616.7
343.15 K, 100000 kPa	904.7	1648.6
343.15 K, 110000 kPa	–	1679
343.15 K, 120000 kPa	–	1708.5
343.15 K, 130000 kPa	–	1736.1
343.15 K, 140000 kPa	–	1763.4
343.15 K, 150000 kPa	–	1789.7
343.15 K, 170000 kPa	–	1840.9
343.15 K, 190000 kPa	–	1889.3
343.15 K, 210000 kPa	–	1935.4
353.15 K, 101.3 kPa	841.8	–
353.15 K, 10000 kPa	849.3	–
353.15 K, 20000 kPa	856.2	–
353.15 K, 30000 kPa	862.8	–
353.15 K, 40000 kPa	868.9	–
353.15 K, 50000 kPa	874.6	–
353.15 K, 60000 kPa	879.9	–
353.15 K, 70000 kPa	885.2	–
353.15 K, 80000 kPa	890	–
353.15 K, 90000 kPa	894.7	–
353.15 K, 100000 kPa	899.3	–
363.15 K, 101.3 kPa	834.7	1180.3
363.15 K, 10000 kPa	842.2	1237
363.15 K, 20000 kPa	849.5	1288.6
363.15 K, 30000 kPa	856.4	1336.6
363.15 K, 40000 kPa	862.6	1381.1
363.15 K, 50000 kPa	868.4	1422.6
363.15 K, 60000 kPa	873.9	1462.6
363.15 K, 70000 kPa	879.1	1500.2
363.15 K, 80000 kPa	884.1	1536.1
363.15 K, 90000 kPa	889	1570.2
363.15 K, 100000 kPa	893.9	1602.5
363.15 K, 110000 kPa	–	1634
363.15 K, 120000 kPa	–	1663.9
363.15 K, 130000 kPa	–	1693
363.15 K, 140000 kPa	–	1720.3
363.15 K, 150000 kPa	–	1747.4
363.15 K, 170000 kPa	–	1799.1
363.15 K, 190000 kPa	–	1847.3
363.15 K, 210000 kPa	–	1894.7
373.15 K, 101.3 kPa	826.5	–
373.15 K, 10000 kPa	835.3	–
373.15 K, 20000 kPa	842.9	–
373.15 K, 30000 kPa	849.9	–
373.15 K, 40000 kPa	856.4	–
373.15 K, 50000 kPa	862.4	–
373.15 K, 60000 kPa	868.3	–
373.15 K, 70000 kPa	873.9	–
373.15 K, 80000 kPa	879.3	–
373.15 K, 90000 kPa	884.3	–
373.15 K, 100000 kPa	889.1	–
383.15 K, 101.3 kPa	819.3	1118.2
383.15 K, 10000 kPa	828.2	1178.7
383.15 K, 20000 kPa	836.2	1233.8
383.15 K, 30000 kPa	843.5	1283.1
383.15 K, 40000 kPa	850.2	1329
383.15 K, 50000 kPa	856.8	1372.3
383.15 K, 60000 kPa	862.7	1413.2
383.15 K, 70000 kPa	868.2	1452.3
383.15 K, 80000 kPa	873.5	1489.5
383.15 K, 90000 kPa	878.7	1525.2
383.15 K, 100000 kPa	883.9	1558.2
383.15 K, 110000 kPa	–	1590.3
383.15 K, 120000 kPa	–	1621.1
383.15 K, 130000 kPa	–	1650.8
383.15 K, 140000 kPa	–	1679.1
383.15 K, 150000 kPa	–	1707.1
383.15 K, 170000 kPa	–	1759.8
383.15 K, 190000 kPa	–	1808.6
383.15 K, 210000 kPa	–	1855.8
393.15 K, 101.3 kPa	811.9	1088
393.15 K, 10000 kPa	820.9	1150.9
393.15 K, 20000 kPa	829.3	1207.3
393.15 K, 30000 kPa	837	1258.5
393.15 K, 40000 kPa	844.1	1304.7
393.15 K, 50000 kPa	850.5	1348.4
393.15 K, 60000 kPa	856.7	1389.4
393.15 K, 70000 kPa	862.4	1428.7
393.15 K, 80000 kPa	867.9	1466.7
393.15 K, 90000 kPa	873	1503.1
393.15 K, 100000 kPa	878.1	1537.7
393.15 K, 110000 kPa	–	1570
393.15 K, 120000 kPa	–	1600.8
393.15 K, 130000 kPa	–	1630.7
393.15 K, 140000 kPa	–	1660.1
393.15 K, 150000 kPa	–	1688
393.15 K, 170000 kPa	–	1740.7
393.15 K, 190000 kPa	–	1790
393.15 K, 210000 kPa	–	1838.1
